Laboratory results reported in patent US20110189686A1, “SCREENING FOR MODULATORS OF CYP2B15 AND/OR GPD1 FOR THE TREATMENT OF ACNE, OF SEBORRHOEIC DERMATITIS OR OF HYPERSEBORRHOEA” (Galderma Research & Development, priority 2008, published 2011).

Legend:
GPD1 [1] = assay: Real-time PCR of GPD1 expression in rat sebaceous gland (epidermal split) after topical PPARgamma agonist, kinetics; format: in vivo; settings: topical 1% in acetone, female FUZZY rats, standardized to 18S, versus carrier group
Protocol: (§1) Skin biopsies are taken (6 samples of skin excised per rat) in order to analyze the expression of the genes (RNA extraction, reverse transcriptase and real-time PCR). The samples are stored at 4° C. overnight before incubation in 1 M sodium bromide (NaBr) for 2 hours at 37° C. After incubation, the samples are separated into epidermis or dermis. The epidermal samples are stored at 20° C. Under these conditions, the sebaceous glands are in the epidermal split. PCRs are carried out, beginning with the cDNAs originating from the epidermal splits containing sebaceous glands from control rats or rats treated with a PPARγ agonist: the mRNA is extracted using a column and quantified. The quality of the mRNAs is measured and is represented by the 18S/28S ratio. The results are standardized with respect to 18S, expressed as relative induction versus untreated animals (carrier group). The statistical analysis is obtained using internal software based on a modified Monte Carlo statistical analysis.

CYP2B15 [2] = assay: Real-time PCR of CYP2B15 expression in rat sebaceous gland (epidermal split) after topical PPARgamma agonist, kinetics; format: in vivo; settings: topical 1% in acetone, female FUZZY rats, standardized to 18S, versus carrier group
Excerpt: as §1, with “• Strain: Ico:HSd:FUZZY-fz • Gender: female • Age: 10 weeks Number per batch: 40 (8 animals per group) Treatment: Route of administration: topical • Compound/batch: PPARgamma agonists: • A: 5-{4-[2-(methylpyridin-2-ylamino)ethoxy]benzyl}thiazolidine-2,4-dione • B: 2-(methoxyethoxymethoxy)naphthalene-2-carboxylic acid [4′-(2,4-dioxothiazolidin-5-ylmethyl)biphenyl-3-ylmethyl]methylamide or rosiglitazone • C: (S)-2-ethoxy-3-{4-[6-(3-heptyl-1-methylureido)pyridin-2-yl]phenyl}propionic acid • Doses: 1% • Carrier: acetone (001) • Duration: 96 hours Method of evaluation: The animals are weighed at the beginning and at the end of the study. Skin” for “Skin”

GPD1 [3] = assay: Affymetrix transcriptome measurement of GPD1 expression in Fuzzy rat epidermal split after 8 days of topical treatment; format: in vivo; settings: GPD1 mRNA (1371363_at), female FUZZY rats, topical 1%, once a day for 8 days, control condition 66
CYP2B15 [4] = assay: Affymetrix transcriptome measurement of CYP2B15 expression in Fuzzy rat epidermal split after 8 days of topical treatment; settings: topical 1%
Protocol: The studies are carried out in female Fuzzy rats (Hsd: FUZZY-fz) 10 weeks old at the beginning of the study. The animals are treated at a dose of 1% (PPARg agonist Rosiglitazone in solution in acetone) once a day for 8 days. Two hours after the final treatment, the animals are sacrificed by euthanasia and the skin on the back is removed. After incubation in dispase, the epidermis carrying the sebaceous glands is detached from the dermis (epidermal split). After grinding of the samples, the mRNA is prepared using Qiagen columns, in accordance with the suppliers' instructions. The material thus prepared is subjected to large-scale transcriptome analysis on an Affymetrix platform. The data are subsequently standardized and, after statistical analysis, the results produced are expressed in arbitrary expression units (see below) accompanied, for each piece of data, by a statistical value for presence of the transcript (presence=1; absence=0).

| SMILES | GPD1 relative induction (GPD1 [1]; 0 hours) | GPD1 relative induction (GPD1 [1]; 8 hours) | GPD1 relative induction (GPD1 [1]; 24 hours) | GPD1 relative induction (GPD1 [1]; 48 hours) | GPD1 relative induction (GPD1 [1]; 96 hours) | CYP2B15 relative induction (CYP2B15 [2]; 0 hours) | CYP2B15 relative induction (CYP2B15 [2]; 8 hours) | CYP2B15 relative induction (CYP2B15 [2]; 24 hours) | CYP2B15 relative induction (CYP2B15 [2]; 48 hours) | CYP2B15 relative induction (CYP2B15 [2]; 96 hours) | Expression after treatment with 1% Rosiglitazone (GPD1 [3]) | Expression after treatment with 1% Rosiglitazone (CYP2B15 [4]; CYP2B15 mRNA (1387722_at), female FUZZY rats, once a day for 8 days, control condition 120) | Significance of the expression after treatment with 1% Rosiglitazone (CYP2B15 [4]; CYP2B15 transcript presence indicator, 8 days) |
| --- | --- | --- | --- | --- | --- | --- | --- | --- | --- | --- | --- | --- | --- |
| CN(CCOc1ccc(CC2SC(=O)NC2=O)cc1)c1ccccn1 (centres unmarked) [A, 5-{4-[2-(methylpyridin-2-ylamino)ethoxy]benzyl}thiazolidine-2,4-dione] | 1 | 18.52 | 12.53 | 6.93 | 3.42 | 1 | 1.56 | 0.68 | 0.29 | 0.08 |  |  |  |
| CCCCCCCNC(=O)N(C)c1cccc(-c2ccc(C[C@H](OCC)C(=O)O)cc2)n1 [C, (S)-2-ethoxy-3-{4-[6-(3-heptyl-1-methylureido)pyridin-2-yl]phenyl}propionic acid] | 1 | 7.59 | 11.56 | 7.50 | 3.44 | 1 | 0.61 | 0.18 | 0.11 | 0.04 |  |  |  |
| CN(CCOc1ccc(CC2SC(=O)NC2=O)cc1)c1ccccn1 (centres unmarked) [Rosiglitazone] |  |  |  |  |  |  |  |  |  |  | 243 arbitrary expression units | 35 arbitrary expression units | 1 |
